From patent publication US6737383B1, “Herbicidal oxadiazolidines” (priority 1999, dated 2004)

Columns and labels:
rape = assay: Test B pre/postemergence rape; format: in vivo, Brassica napus
Summary of the method: (§1)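 Response is a visual 0-to-10 score relative to untreated plants, where 0 means no effect and 10 means complete control, taken twelve to sixteen days after application. Treatments went onto soil at planting and onto foliage of 1- to 4-leaf plants, using a surfactant-containing non-phytotoxic solvent.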

sugar beet = assay: Test B pre/postemergence sugar beet; format: in vivo, Beta vulgaris
Summary of the method: as §1

purple nutsedge = assay: Test B pre/postemergence purple nutsedge; format: in vivo, Cyperus rotundus
Summary of the method: as §1

duck salad = assay: Test B flood test duck salad; format: in vivo, Heteranthera limosa
Summary of the method: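 Flood test on plants grown to the 2-leaf stage; treated plants kept in greenhouse twelve to sixteen days, then visually rated against controls on a 0 (no effect) to 10 (complete control) scale.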

winter wheat [1] = assay: Test E winter wheat; format: in vivo, Triticum aestivum; settings: Postemergence
Summary of the method: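 Compounds formulated in non-phytotoxic solvent mixture with surfactant; for postemergence, sprayed on plants at 1- to 4-leaf stage grown in 60:40 sandy loam/greenhouse potting mix. Kept in greenhouse ~21 to 28 days, then visually rated against untreated controls.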

blackgrass = assay: Test E blackgrass; format: in vivo, Alopecurus myosuroides; settings: Preemergence
green foxtail = assay: Test E green foxtail; format: in vivo, Setaria viridis; settings: Preemergence
Italian ryegrass = assay: Test E Italian ryegrass; format: in vivo, Lolium multiflorum; settings: Preemergence
winter wheat [2] = assay: Test E winter wheat; format: in vivo, Triticum aestivum; settings: Preemergence
wild oat = assay: Test E wild oat; format: in vivo, Avena fatua; settings: Preemergence
winter barley = assay: Test E winter barley; format: in vivo, Hordeum vulgare; settings: Preemergence
[3] = Preemergence, Rate 62 g/ha, scale of 0 to 10 where 0 is no effect and 10 is complete control
[4] = Preemergence, Rate 250 g/ha, scale of 0 to 10 where 0 is no effect and 10 is complete control
[5] = Preemergence, Rate 500 g/ha, scale of 0 to 10 where 0 is no effect and 10 is complete control
[6] = Rate 62 g/ha, Postemergence, scale of 0 to 10 where 0 is no effect and 10 is complete control
[7] = Rate 125 g/ha, Postemergence, scale 0 to 10
[8] = Rate 125 g/ha, Preemergence, scale of 0 to 10 where 0 is no effect and 10 is complete control
[9] = Rate 500 g/ha, Postemergence, scale 0 to 10, 0 no effect, 10 complete control
[10] = Rate 500 g/ha, 0 to 100 scale where 0 is no effect and 100 is complete control
[11] = Rate 1000 g/ha, 0 to 100 scale, 0 no effect, 100 complete control

Cc1nc(C)c(Cn2c(=O)on(C(=O)N(c3ccc(F)cc3)C(C)C)c2=O)s1 [Compound 232]
Rape plant response rating (rape; [3]): 0 | Rape plant response rating (rape; [4]): 0 | Plant response rating, Rape (rape; [5]): 0 | Rape plant response rating (rape; [6]): 0 | Rape plant response rating (rape; [7]): 2 | Rape plant response rating (rape; [8]): 0 | Plant response rating (0 to 10; 0 is no effect, 10 is complete control), Rape (rape; Rate 250 g/ha, Postemergence): 2 | Rape plant response rating (rape; [9]): 2 | Sugarbeets plant response rating (sugar beet; [3]): 0 | Sugarbeets plant response rating (sugar beet; [4]): 4 | Plant response rating, Sugarbeets (sugar beet; [5]): 4 | Sugarbeets plant response rating (sugar beet; [6]): 0 | Sugarbeets plant response rating (sugar beet; [7]): 2 | Sugarbeets plant response rating (sugar beet; [8]): 0 | Plant response rating (0 to 10; 0 is no effect, 10 is complete control), Sugarbeets (sugar beet; Rate 250 g/ha, Postemergence): 2 | Sugarbeets plant response rating (sugar beet; [9]): 3 | Nutsedge plant response rating (purple nutsedge; [3]): 0 | Nutsedge plant response rating (purple nutsedge; [6]): 0 | Nutsedge plant response rating (purple nutsedge; [7]): 0 | Nutsedge plant response rating (purple nutsedge; [8]): 0 | Plant response rating (0 to 10; 0 is no effect, 10 is complete control), Nutsedge (purple nutsedge; Rate 250 g/ha, Postemergence): 0 | Nutsedge plant response rating (purple nutsedge; [9]): 0 | Ducksalad plant response rating (duck salad; Rate 62 g/ha, headed Pre-emergence (flood test species), scale 0 to 10 (0 no effect, 10 complete control)): 0 | Ducksalad plant response rating (duck salad; Rate 125 g/ha, Pre-emergence, flood test species, scale 0 to 10 where 0 is no effect and 10 is complete control): 0 | Ducksalad plant response rating (duck salad; Rate 250 g/ha, Pre-emergence, flood-test species, scale 0 to 10, 0 is no effect, 10 is complete control): 0 | Ducksalad plant response rating (duck salad; Rate 500 g/ha, Pre-emergence, flood test species, scale 0 to 10 (0 no effect, 10 complete control)): 0 | Plant response rating, Wheat (winter) (winter wheat [1]; Rate 1000 g/ha, 0 to 100 scale where 0 is no effect and 100 is complete control): 60 | Wheat (winter) plant response rating (winter wheat [1]; Rate 250 g/ha, 0 to 100 scale where 0 is no effect and 100 is complete control): 40 | Plant response rating, Wheat (winter) (winter wheat [1]; Rate 500 g/ha, 0 to 100 scale, 0 is no effect, 100 is complete control): 50 | Blackgrass plant response rating (0 to 100 scale) (blackgrass; Rate 250 g/ha): 30 | Plant response rating, Blackgrass (blackgrass; [10]): 50 | Plant response rating, Blackgrass (blackgrass; [11]): 50 | Green foxtail plant response rating (0 to 100 scale) (green foxtail; Rate 250 g/ha): 95 | Plant response rating, Green foxtail (green foxtail; [10]): 90 | Plant response rating, Green foxtail (green foxtail; [11]): 100 | I. Ryegrass plant response rating (0 to 100 scale) (Italian ryegrass; Rate 250 g/ha): 40 | Plant response rating, I. Ryegrass (Italian ryegrass; [10]): 50 | Plant response rating, I. Ryegrass (Italian ryegrass; [11]): 55 | Wheat (winter) plant response rating (0 to 100 scale) (winter wheat [2]; Rate 250 g/ha): 30 | Plant response rating, Wheat (winter) (winter wheat [2]; [10]): 30 | Plant response rating, Wheat (winter) (winter wheat [2]; [11]): 50 | Wild oat plant response rating (0 to 100 scale) (wild oat; Rate 250 g/ha): 55 | Plant response rating, Wild oat (wild oat; [10]): 50 | Plant response rating, Wild oat (wild oat; [11]): 60 | Barley (winter) plant response rating (0 to 100 scale) (winter barley; Rate 250 g/ha): 20 | Plant response rating, Barley (winter) (winter barley; [10]): 20 | Plant response rating, Barley (winter) (winter barley; [11]): 55
